Source: patent publication US7399869B2, “Fibroblast activation protein inhibitor compounds and methods” (Genentech, Inc., priority 2005, dated 2008)

Assays:
Type in all cases: biochemical
DPP-8 = molecular target: T1, DPP-8 (Homo sapiens, UniProt Q6V1X1); experiment: Inhibition of DPP-8 by Ac-Gly-boroPro 5
T1 construct: 2-883 of DPP-8; FLAG (N); made in house; host or cells: 293 cells; template plasmid from Origene
Protocol: (§1) To establish whether Ac-Gly-BoroPro 5 inhibits these prolyl peptidases, each protease was cloned, expressed and assayed to determine Km and Ki values and monitor their activity.
(§2) Briefly, proteases were added to a reaction mixture containing inhibitor and substrate (Ac-Ala-AMC for APH, Z-Gly-Pro-AMC for POP, and Ala-Pro-AFC for all others) in assay buffer at 23° C. Protease activity was followed continuously as described above to monitor time-dependent inhibition. Data were plotted as V0/Vi−1 versus [I], where V0 is the rate if substrate hydrolysis in the absence of inhibitor, Vi is the steady state rate of substrate hydrolysis in the presence of inhibitor and [I] is the concentration of Ac-Gly-BoroPro.
(§3) KI values for inhibition of proteases by 5 were determined using the method of progress curves. Briefly, proteases (10-100 nM) were added to a reaction mixture containing inhibitor 5 (0-10 μM) and substrate AP-AFC in assay buffer at 23° C. […] Ki, the true equilibrium inhibition constant was determined according to the following relationship: Ki=Kobs/(1+[S]/Km), where [S] is the concentration of substrate used in the assay and Km is the Michaelis constant for substrate cleavage. […]

DPP-9 = molecular target: T2, DPP-9 (Homo sapiens, UniProt Q86TI2); experiment: Inhibition of DPP-9 by Ac-Gly-boroPro 5
T2 construct: 2-864 of DPP-9; FLAG (N); made in house; host or cells: 293 cells; template plasmid from Origene
Protocol: as §1, §2, §3

APH = molecular target: T3, APH (Homo sapiens, UniProt P13798); experiment: Inhibition of APH by Ac-Gly-boroPro 5; conditions: substrate Ac-Ala-AMC, 23° C., progress curves
T3 construct: 2-732 of APH; FLAG (N); made in house; host or cells: 293 cells; template plasmid from Origene
T3 sequence (P13798 2-732): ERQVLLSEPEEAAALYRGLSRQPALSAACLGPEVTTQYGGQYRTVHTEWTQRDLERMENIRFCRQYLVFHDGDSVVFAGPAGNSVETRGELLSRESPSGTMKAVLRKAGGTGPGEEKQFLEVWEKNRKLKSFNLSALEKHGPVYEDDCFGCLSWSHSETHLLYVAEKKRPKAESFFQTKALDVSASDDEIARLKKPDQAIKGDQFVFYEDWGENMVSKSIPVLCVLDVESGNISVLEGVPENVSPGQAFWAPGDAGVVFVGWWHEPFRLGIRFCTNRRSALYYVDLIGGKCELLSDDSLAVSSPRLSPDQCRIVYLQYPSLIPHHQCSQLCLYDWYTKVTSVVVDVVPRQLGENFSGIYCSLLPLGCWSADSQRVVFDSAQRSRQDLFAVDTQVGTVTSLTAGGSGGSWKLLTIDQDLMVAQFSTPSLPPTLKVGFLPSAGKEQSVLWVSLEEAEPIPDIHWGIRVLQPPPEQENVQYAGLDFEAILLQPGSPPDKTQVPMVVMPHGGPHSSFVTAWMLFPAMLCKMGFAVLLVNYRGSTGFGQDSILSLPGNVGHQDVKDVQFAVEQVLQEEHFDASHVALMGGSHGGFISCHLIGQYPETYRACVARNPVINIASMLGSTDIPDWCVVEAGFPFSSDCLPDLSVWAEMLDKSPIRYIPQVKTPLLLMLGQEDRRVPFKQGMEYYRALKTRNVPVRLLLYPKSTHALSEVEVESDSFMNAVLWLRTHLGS
Protocol: as §1, §2, §3

DPP-7 = molecular target: T4, DPP-7 (Homo sapiens, UniProt Q9UHL4); experiment: Inhibition of DPP-7 by Ac-Gly-boroPro 5; conditions: substrate Ala-Pro-AFC, 23° C., progress curves
T4 construct: These constructs encoded amino acids 26-492 of DPP-7; FLAG (N); made in house; host or cells: 293 cells; template plasmid from Origene
Protocol: as §1, §2, §3

[1] = molecular target: T5, full-length (transmembrane) murine FAP (Mus musculus, UniProt P97321); experiment: Inhibition of murine FAP in cell lysate
T5 sequence (P97321 1-761): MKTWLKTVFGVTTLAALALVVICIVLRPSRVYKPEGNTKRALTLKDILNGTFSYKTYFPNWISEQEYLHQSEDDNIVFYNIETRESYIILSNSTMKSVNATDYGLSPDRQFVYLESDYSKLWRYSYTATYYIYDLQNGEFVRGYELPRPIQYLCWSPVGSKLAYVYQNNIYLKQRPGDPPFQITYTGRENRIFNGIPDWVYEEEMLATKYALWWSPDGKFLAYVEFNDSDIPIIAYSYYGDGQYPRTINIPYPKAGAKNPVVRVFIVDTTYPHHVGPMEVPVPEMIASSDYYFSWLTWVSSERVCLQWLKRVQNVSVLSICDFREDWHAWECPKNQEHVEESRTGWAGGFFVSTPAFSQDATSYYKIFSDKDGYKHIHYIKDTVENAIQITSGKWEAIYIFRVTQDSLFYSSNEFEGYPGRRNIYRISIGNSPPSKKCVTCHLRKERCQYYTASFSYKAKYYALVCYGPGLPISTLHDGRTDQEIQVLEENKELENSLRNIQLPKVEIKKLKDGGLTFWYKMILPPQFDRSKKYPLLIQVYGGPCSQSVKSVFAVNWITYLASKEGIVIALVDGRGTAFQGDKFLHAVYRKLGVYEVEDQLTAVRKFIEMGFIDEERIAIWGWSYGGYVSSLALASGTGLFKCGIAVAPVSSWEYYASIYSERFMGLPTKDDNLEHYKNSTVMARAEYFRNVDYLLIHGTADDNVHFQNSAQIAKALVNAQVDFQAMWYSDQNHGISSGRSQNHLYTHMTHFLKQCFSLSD

[2] = substrate Ala-Pro-AFC, 23° C., progress curves

T2 sequence (Q86TI2 2-863 limits assumed): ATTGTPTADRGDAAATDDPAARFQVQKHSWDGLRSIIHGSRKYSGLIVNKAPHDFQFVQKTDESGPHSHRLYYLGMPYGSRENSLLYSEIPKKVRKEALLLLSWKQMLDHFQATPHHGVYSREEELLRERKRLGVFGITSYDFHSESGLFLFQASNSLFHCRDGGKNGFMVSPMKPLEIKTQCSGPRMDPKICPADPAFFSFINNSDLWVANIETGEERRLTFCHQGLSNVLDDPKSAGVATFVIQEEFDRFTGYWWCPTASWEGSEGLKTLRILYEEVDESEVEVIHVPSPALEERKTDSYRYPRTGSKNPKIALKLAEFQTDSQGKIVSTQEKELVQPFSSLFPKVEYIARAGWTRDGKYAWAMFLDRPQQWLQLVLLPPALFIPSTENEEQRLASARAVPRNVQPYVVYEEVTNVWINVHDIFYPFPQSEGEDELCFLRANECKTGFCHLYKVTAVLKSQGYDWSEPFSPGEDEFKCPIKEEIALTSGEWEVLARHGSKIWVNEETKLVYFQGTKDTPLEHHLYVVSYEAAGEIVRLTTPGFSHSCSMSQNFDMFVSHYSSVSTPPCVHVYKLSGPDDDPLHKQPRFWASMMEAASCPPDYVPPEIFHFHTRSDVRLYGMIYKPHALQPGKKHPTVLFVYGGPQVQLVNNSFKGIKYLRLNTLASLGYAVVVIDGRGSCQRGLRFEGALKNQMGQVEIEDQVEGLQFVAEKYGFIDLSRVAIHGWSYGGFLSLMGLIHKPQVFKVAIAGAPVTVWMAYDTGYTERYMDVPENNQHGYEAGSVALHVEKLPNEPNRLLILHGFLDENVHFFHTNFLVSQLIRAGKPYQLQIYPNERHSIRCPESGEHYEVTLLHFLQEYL
T1 sequence (Q6V1X1 18-898 limits assumed): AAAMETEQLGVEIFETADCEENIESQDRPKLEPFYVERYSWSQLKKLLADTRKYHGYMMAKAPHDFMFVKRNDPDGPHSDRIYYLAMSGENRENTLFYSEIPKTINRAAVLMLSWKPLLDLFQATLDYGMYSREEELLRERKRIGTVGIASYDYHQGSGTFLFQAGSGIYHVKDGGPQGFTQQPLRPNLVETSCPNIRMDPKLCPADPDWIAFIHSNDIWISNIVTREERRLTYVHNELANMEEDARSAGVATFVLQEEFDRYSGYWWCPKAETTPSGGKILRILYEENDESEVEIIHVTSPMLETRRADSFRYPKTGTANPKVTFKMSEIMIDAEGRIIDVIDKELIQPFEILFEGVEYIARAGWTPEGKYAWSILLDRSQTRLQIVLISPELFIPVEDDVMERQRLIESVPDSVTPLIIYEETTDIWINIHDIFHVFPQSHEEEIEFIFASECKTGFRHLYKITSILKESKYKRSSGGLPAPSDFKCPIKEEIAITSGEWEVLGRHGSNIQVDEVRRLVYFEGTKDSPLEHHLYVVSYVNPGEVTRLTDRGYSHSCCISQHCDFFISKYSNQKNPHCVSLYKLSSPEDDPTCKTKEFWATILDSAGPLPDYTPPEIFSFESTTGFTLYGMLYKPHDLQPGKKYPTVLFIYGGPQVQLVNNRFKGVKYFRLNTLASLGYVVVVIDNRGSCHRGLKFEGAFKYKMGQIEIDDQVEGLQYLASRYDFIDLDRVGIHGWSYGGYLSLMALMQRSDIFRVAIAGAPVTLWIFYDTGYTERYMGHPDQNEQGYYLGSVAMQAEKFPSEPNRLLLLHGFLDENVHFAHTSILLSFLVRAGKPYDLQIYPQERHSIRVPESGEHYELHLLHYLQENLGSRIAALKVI

reactivity with DPP-8 (DPP-8): poor reactivity | Ki (DPP-8; [2]): 19.1 µM | reactivity with DPP-9 (DPP-9): poor reactivity | Ki (DPP-9; [2]): 8.8 µM | Ki (APH): 0.575 µM | Ki (DPP-7): 125 µM | inhibits full-length (transmembrane) murine FAP at [1]: 117 nM
SMILES: CC(=O)NCC(=O)N1CCCC1B(O)O (stereo not shown) [N-Ac-Gly-boroPro 5, N-acetyl-gly-boroproline]
